The record followed here is patent US8252822B2, “Heterocyclic compounds and uses as anticancer agents” (Acea Biosciences, Inc., priority 2007, dated 2012).

Like-named read-outs stand apart in the source and are kept apart here.

The test system of assay [1] is GTL16. Nature of the assay: RT-CES cell proliferation inhibition, GTL16. Particulars: Homo sapiens, GTL 16. Format: cell-based. The source says:
(§1) The biological activity of compounds disclosed herein was monitored and profiled using the Real-Time Cell Electronic Sensing (RT-CES®) system from ACEA Biosciences, Inc. The RT-CES system utilizes cell-substrate impedance technology to monitor cellular behavior inside tissue culture wells in a microtiter plate format. The technology features in the integration of molecular and cell biology with microelectronics and is based on the electronic detection of biological assay process. The details of this cell electronic sensing technology and associated devices, systems and methods of use as described in U.S. provisional application No. 60/379,749, filed on Jul. […]
(§2) For measurement of cell-substrate or cell-electrode impedance using RT-CES technology, microelectrodes having appropriate geometries are fabricated onto the bottom surfaces of microtiter plate or similar device, facing into the wells. […] When there are changes to the biological status of the cells analogue electronic readout signals are measured automatically and in real time, and are converted to digital signals for processing and for analysis. In a RT-CES system, a cell index (arbitrary representation of change in impedance) is automatically derived and provided based on measured electrode impedance values. […]
(§3) To quantify cell status based on the measured cell-electrode impedance, a parameter termed Cell Index is derived. […]

Assay [2] relates to Hela. The assay is described as follows: RT-CES cell proliferation inhibition, Hela. Format: cell-based. The conditions noted are these: Homo sapiens.
Excerpt: as §1, §2, §3

For assay [3], the system named is SH-SY5Y. Nature of the assay: RT-CES cell proliferation inhibition, SH-SY5Y. Type of assay: cell-based. Particulars: Homo sapiens.
Excerpt: as §1, §2, §3

Assay [4] relates to Panc-1. Nature of the assay: RT-CES cell proliferation inhibition, Panc-1. Type of assay: cell-based. The conditions noted are these: Homo sapiens.
Excerpt: as §1, §2, §3

Assay [5] has as its system B16-luc. The assay is described as follows: RT-CES cell proliferation inhibition, B16-luc. Format: cell-based, Rat. Particulars: Mus musculus.
Excerpt: as §1, §2, §3

In assay [6] the test system is A549 cells. Nature of the assay: RT-CES cell proliferation inhibition, A549. Type of assay: cell-based, Human. The conditions noted are these: for IC50: Homo sapiens.
Excerpt: The biological activity of compounds disclosed herein was monitored and profiled using the Real-Time Cell Electronic Sensing (RT-CES®) system from ACEA Biosciences, Inc. The RT-CES system utilizes cell-substrate impedance technology to monitor cellular behavior inside tissue culture wells in a microtiter plate format. The technology features in the integration of molecular and cell biology with microelectronics and is based on the electronic detection of biological assay process. The details of this cell electronic sensing technology and associated devices, systems and methods of use as described in U.S. provisional application No. 60/379,749, filed on Jul. 20, 2002; U.S. provisional application No. 60/435,400, filed on Dec. 20, 2002; U.S. Provisional application 60/469,572, filed on May 9, 2003, PCT application number PCT/US03/22557, filed on Jul. 18, 2003; PCT application number PCT/US03/22537, filed on Jul. 18, 2003; U.S. patent application Ser. No. 10/705,447, filed on Nov. 10, 2003; U.S. patent application Ser. No. 10/705,615, filed on Nov. 10, 2003, each of which is incorporated by reference. Additional details of RT-CES technology is further disclosed in U.S. provisional application No. 60/519,567, filed on Nov. 12, 2003, and U.S. provisional application No. 60/542,927, filed on Feb. 9, 2004.
For measurement of cell-substrate or cell-electrode impedance using RT-CES technology, microelectrodes having appropriate geometries are fabricated onto the bottom surfaces of microtiter plate or similar device, facing into the wells. Cells are introduced into the wells of the devices, and make contact to and attach to the electrode surfaces. The presence, absence or change of properties of cells affects the electronic and ionic passage on the electrode sensor surfaces. Measuring the impedance between or among electrodes provides important information about biological status of cells present on the sensors. When there are changes to the biological status of the cells analogue electronic readout signals are measured automatically and in real time, and are converted to digital signals for processing and for analysis. In a RT-CES system, a cell index (arbitrary representation of change in impedance) is automatically derived and provided based on measured electrode impedance values. The cell index obtained for a given well reflects: 1) how many cells are attached to the electrode surfaces in this well; 2) how well cells are attached to the electrode surfaces in this well. Thus, the more the cells of same type in similar physiological conditions attach the electrode surfaces, the larger the cell index. And, the better the cells attach to the electrode surfaces (e.g., the cells spread-out more to have larger contact areas, or the cells attach tighter to electrode surfaces), the larger the cell index.
The RT-CES system comprises three components, an electronic sensor analyzer, a device station and 16× or 96× microtiter devices. Microelectrode sensor array was fabricated on glass slides with lithographical microfabrication methods and the electrode-containing slides are assembled to plastic trays to form electrode-containing wells. The device station receives the 16× or 96× microtiter plate devices and is capable of electronically switching any one of the wells to the sensor analyzer for impedance measurement. In operation, the devices with cells cultured in the wells are placed into a device station that is located inside an incubator. Electrical cables connect the device station to the sensor analyzer. Under the RT-CES software control, the sensor analyzer can automatically select wells to be measured and continuously conduct impedance measurements. The impedance data from the analyzer is transferred to a computer, analyzed and processed by the integrated software.
as §3

For assay [7], the system named is Bcap37. Nature of the assay: RT-CES cell proliferation inhibition, Bcap37. The conditions noted are these: Homo sapiens. Type of assay: cell-based.
Excerpt: as §1, §2, §3

Assay [8] relates to MDCK. The assay is described as follows: RT-CES cell proliferation inhibition, MDCK. Format: cell-based, Monkey. Particulars: Canis lupus familiaris.
Excerpt: as §1, §2, §3

Assay [9] relates to MCF7adr. Nature of the assay: RT-CES cell proliferation inhibition, MCF7adr. Type of assay: cell-based. The conditions noted are these: Homo sapiens, NCI/ADR-RES.
Excerpt: as §1, §2, §3

The term IC50 denotes the concentration that gives 50% inhibition. As to `Br.CCOc1ccc(Nc2nc(-c3c(C)nc4sccn34)cs2)cc1` [Compound 27, 2-(4-ethoxyphenyl)amino-4-(6-methylimidazo[2,1-b]thiazol-5-yl)thiazole], the IC50 in [1] (GTL16, 24 hrs, read-out: IC50 (24 hr)) was 138 nM; in assay [1] (GTL16, 48 hrs, read-out: IC50 (48 hr)), 2.1 nM; in assay [2] (24 hrs, read-out: IC50 (24 hr)) it was 5.85 nM; in assay [2] (48 hrs, read-out: IC50 (48 hr)), 6.95 nM; in [3] (24 hrs, read-out: IC50 (24 hr)), 13.4 nM; in [3] (48 hrs, read-out: IC50 (48 hr)) it was 6.7 nM. Besides, the half-inhibitory concentration (IC50) in assay [4] (Panc-1, 24 hrs, read-out: IC50 (24 hr)) was 113 nM; in assay [4] (Panc-1, 48 hrs, read-out: IC50 (48 hr)), 426 nM; in assay [5] (24 hrs, read-out: IC50 (24 hr)), 705 nM; in assay [5] (48 hrs, read-out: IC50 (48 hr)), 643 nM; in assay [6] (A549, 24 hours after compound treatment, normalized Cell Index, read-out: IC50 (24 hr)), 57.4 nM; in [6] (A549, 48 hrs, read-out: IC50 (48 hr)), 29.1 nM. Further, the IC50 in assay [7] (Bcap37, 24 hrs, read-out: IC50 (24 hr)) came out at 27.3 nM; in assay [7] (Bcap37, 48 hrs, read-out: IC50 (48 hr)), 26 nM; in [8] (24 hrs, read-out: IC50 (24 hr)), 930 nM; in assay [8] (48 hrs, read-out: IC50 (48 hr)), 1870 nM; in assay [9] (24 hrs, read-out: IC50 (24 hr)), 12.3 nM; in assay [9] (48 hrs, read-out: IC50 (48 hr)), 12.5 nM. In addition, in assay [6] (A549, complex kinetic responses), the “concentration at or above which cell indices first decreased with time and then increased” value is given as ≥ 62.5 nM. Further, in assay [6] (various concentrations studied, time-dependent cell index), the “inhibitory ability against the proliferation of A549 cells” value is “exhibited inhibitory ability against the proliferation of A549 cells”.
